Measurements: patent US9353075B2, “Disubstituted beta-lactones as inhibitors of N-acylethanolamine acid amidase (NAAA)” (The Regents of the University of California, priority 2011, dated 2016)

Target: r-NAAA (Rattus norvegicus (Rat), UniProt Q5KTC7)
Assay: r-NAAA inhibition, rat lung lysosomal NAAA preparation, UPLC/MS
Type: biochemical
Details: for inhibition at 3 µM: read-out: r-NAAA % inhib. @ 3 μM
Method: Lysosomal NAAA protein preparation were obtained by homogenizing male Sprague-Dawley rat lungs (Charles River) in 20 mM Tris-HCl buffer pH 7.4 containing 0.32M sucrose. Samples were centrifuged at 800×g for 15 minutes at 4° C. Supernatants were then centrifuged at 12,000 g for 30 minutes at 4° C. Pellets were then resuspended in PBS pH 7.4 and subjected to a freeze/thaw cycle at −80° C. The suspension was finally centrifuged at 105,000×g for 1 hour at 4° C. The supernatant was then used in the enzymatic assay.
NAAA protein preparation was pre-incubated with various concentrations of test compounds or vehicle control in 100 mM NaH2PO4/Citrate buffer, 1% Triton-X, 3 mM DTT (pH 4.5) for 30 minutes at 37° C. Samples were then incubated with heptadecenoylethanolamide (50 μM, Avanti Polar Lipids) at 37° C. for 30 min. The reaction was terminated by addition of cold methanol containing heptadecanoic acid (NuCheck Prep) as internal standard. Samples were then analyzed by UPLC/MS (Acquity, Waters). Heptadecenoic and heptadecanoic acids were eluted on an Acquity UPLC BEH C18 column (50 mm length, 2.1 mm i.d., 1.7 μm pore size, Waters) isocratically at 0.5 mL/min for 1.5 min with a solvent mixture of 95% methanol and 5% water, both containing 0.25% Acetic Acid and 5 mM Ammonium Acetate. The column temperature was 40° C. Electrospray ionization was in the negative mode, capillary voltage was 0.5 kV, cone voltage was […], desolvation temperature was 500° C. N2 was used as drying gas at a flow rate of 1000 L/hour and a temperature of 500° C. The [M−H]^− ion was monitored in the selected-ion monitoring mode (m/z values: heptadecenoic acid 267.37, heptadecanoic acid 269.37). Calibration curves were generated using commercial heptadecenoic acid (NuCheck Prep). Inhibition of NAAA activity was calculated as reduction of heptadecenoic acid in the samples compared to vehicle controls. IC50 values were calculated by non-linear regression analysis of log [concentration]/inhibition curves using GraphPad Prism 5 (GraphPad Software Inc., CA—USA) applying a standard slope curve fitting.

Sequence of r-NAAA (Q5KTC7 34-362): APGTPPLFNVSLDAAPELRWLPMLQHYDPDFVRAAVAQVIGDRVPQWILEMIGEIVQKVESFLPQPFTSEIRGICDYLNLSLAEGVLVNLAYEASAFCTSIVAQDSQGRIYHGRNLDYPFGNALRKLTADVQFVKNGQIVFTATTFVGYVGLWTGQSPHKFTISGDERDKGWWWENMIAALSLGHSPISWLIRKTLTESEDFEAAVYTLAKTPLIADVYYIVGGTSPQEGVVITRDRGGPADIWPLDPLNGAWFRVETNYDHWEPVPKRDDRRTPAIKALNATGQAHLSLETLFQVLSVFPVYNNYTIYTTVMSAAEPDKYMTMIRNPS

IC50 [µM]	SMILES	inhibition at 3 µM [%]	also measured
–	CC(C)[C@@H]1OC(=O)[C@@H]1NC(=O)OCCCCCc1ccccc1 (relative stereo) [Example 53, 5-Phenylpentyl-N-[(2S*,3R*)-2-isopropyl-4-oxo-oxetan-3-yl]-carbamate]	55	–
0.04	CCCCCCCOC(=O)N[C@H]1C(=O)O[C@H]1C [Example 40, Heptyl-N-[(2S,3R)-2-methyl-4-oxo-oxetan-3-yl]-carbamate]	–	–
0.84	C[C@@H]1OC(=O)[C@@H]1NC(=O)OC1(C)CCCCC1 [Example 10, (1-methylcyclohexyl)-[(2S,3R)-2-methyl-4-oxo-oxetan-3-yl]-carbamate]	–	–
–	CC(C)[C@H]1OC(=O)[C@@H]1NC(=O)OCc1ccc(-c2ccccc2)cc1 (relative stereo) [Example 52, (4-Phenylphenyl)-methyl-N-[(2R*,3R*)-2-isopropyl-4-oxo-oxetan-3-yl]-carbamate]	93	–
0.31	C[C@@H]1OC(=O)[C@@H]1NC(=O)OC1CCC(Cc2ccccc2)CC1 (mixture of isomers) [Example 30, (1s,4S) and (1r, 4R)-(4-Benzylcyclohexyl)-N-[(2S,3R)-2-methyl-4-oxooxetan-3-yl]-carbamate]	–	–
0.14	C[C@@H]1OC(=O)[C@@H]1NC(=O)OCCOCCc1ccccc1 [Example 36, 2-Phenethyloxyethyl-N-[(2S,3R)-2-methyl-4-oxo-oxetan-3-yl]-carbamate]	–	–
1.17	C[C@@H]1OC(=O)[C@@H]1NC(=O)OCCCCCCc1ccccc1 [Example 34, 6-Phenylhexyl-N-[(2S,3R)-2-methyl-4-oxo-oxetan-3-yl]-carbamate]	–	–
0.75	C[C@@H]1OC(=O)[C@@H]1NC(=O)OC1CCC(=Cc2ccccc2)CC1 (stereo partly drawn) [Example 31, (R,Z) and (S,E)-(4-Benzylidenecyclohexyl)-N-[(2S,3R)-2-methyl-4-oxooxetan-3-yl]-carbamate]	–	–
1.31	C[C@@H]1OC(=O)[C@@H]1NC(=O)OC1CCN(C(=O)c2ccccc2)CC1 [Example 9, (1-benzoyl-4-piperidyl)-N-[(2S,3R)-2-methyl-4-oxo-oxetan-3-yl]-carbamate]	–	–
0.27	CCCCCCOC(=O)N[C@H]1C(=O)O[C@H]1C [Example 39, Hexyl-N-[(2S,3R)-2-methyl-4-oxo-oxetan-3-yl]-carbamate]	–	–
2.52	C[C@@H]1OC(=O)[C@@H]1NC(=O)OCCc1ccccc1 [Example 33, Phenethyl-N-[(2S,3R)-2-methyl-4-oxo-oxetan-3-yl]-carbamate]	–	–
0.67	CCCCCOC(=O)N[C@H]1C(=O)O[C@H]1C [Example 1, Pentyl-[(2S,3R)-2-methyl-4-oxooxetan-3-yl]-carbamate]	–	–
–	C[C@@H]1OC(=O)[C@@H]1N(C)C(=O)OCCCCCc1ccccc1 [Example 41, 5-Phenylpentyl-N-methyl-N-[(2S,3R)-2-methyl-4-oxo-oxetan-3-yl]-carbamate]	–	r-NAAA IC50 (μM) or % inhib. (result in words): No inhib.
–	CC[C@H]1OC(=O)[C@@H]1NC(=O)OCc1ccc(-c2ccccc2)cc1 (relative stereo) [Example 48, (4-Phenylphenyl)-methyl-N-[(2R*,3R*)-2-ethyl-4-oxo-oxetan-3-yl]-carbamate]	100	–
–	C[C@@H]1OC(=O)[C@@H]1NC(=O)OC1CCN(Cc2ccccc2)CC1 [Example 21, (1-benzyl-4-piperidyl)-N-[(2S,3R)-2-methyl-4-oxo-oxetan-3-yl]-carbamate]	21	–
3.53	C[C@H]1OC(=O)[C@H]1NC(=O)OCCCCCc1ccccc1 [Example 37, 5-Phenylpentyl-N-[(2R,3S)-2-methyl-4-oxo-oxetan-3-yl]-carbamate]	–	–

IC50 [µM]	SMILES	inhibition at 3 µM [%]	also measured
1.23	C[C@@H]1OC(=O)[C@@H]1NC(=O)OC1(C)CCCC1 [Example 23, (1-Methylcyclopentyl) N-[(2S,3R)-2-methyl-4-oxo-oxetan-3-yl]-carbamate]	–	–
0.084	C[C@@H]1OC(=O)[C@@H]1NC(=O)OCCCc1ccccc1 [Example 4, 3-phenylpropyl-[(2S,3R)-2-methyl-4-oxooxetan-3-yl]-carbamate]	–	–
0.1	CC(C)C(CCCCc1ccccc1)OC(=O)N[C@H]1C(=O)O[C@H]1C (mixture of isomers) [Example 28, [(1R) and (1S)-1-Isopropyl-5-phenyl-pentyl]-N-[(2S,3R)-2-methyl-4-oxo-oxetan-3-yl]-carbamate]	–	–
–	CC[C@@H]1OC(=O)[C@@H]1NC(=O)OCc1ccc(-c2ccccc2)cc1 (relative stereo) [Example 50, (4-Phenylphenyl)-methyl-N-[(2S*,3R*)-2-ethyl-4-oxo-oxetan-3-yl]-carbamate]	100	–
0.018	C[C@H]1OC(=O)[C@@H]1NC(=O)OCCCCCc1ccccc1 [Example 38, 5-Phenylpentyl-N-[(2R,3R)-2-methyl-4-oxo-oxetan-3-yl]-carbamate]	–	–
–	CC(C)(C)[C@H]1OC(=O)[C@@H]1NC(=O)OCc1ccc(-c2ccccc2)cc1 (relative stereo) [Example 57, (4-Phenyl-phenyl)-methyl-N-[(2R*,3R*)-2-tert-butyl-4-oxo-oxetan-3-yl]-carbamate]	73	–
–	CCC1OC(=O)C1NC(=O)OC(C)(C)C (stereo not drawn) [Example 13, tert-Butyl-N-[(2S*,3R*)-2-ethyl-4-oxo-oxetan-3-yl]-carbamate and tert-Butyl-N-[(2S*,3S*)-2-ethyl-4-oxo-oxetan-3-yl]-carbamate]	48	–
–	C[C@@H]1OC(=O)[C@@H]1NC(=O)OCc1cccc(-c2ccccc2)c1 [Example 14, (3-phenylphenyl)-methyl-N-[(2S,3R)-2-methyl-4-oxo-oxetan-3-yl]-carbamate]	–	inhibition at 10 µM (read-out: r-NAAA % inhib. @ 10 μM): 28%
40	C[C@@H]1OC(=O)[C@@H]1NC(=O)OC1(C)CCOCC1 [Example 11, (4-methyltetrahydropyran-4-yl)-N-[(2S,3R)-2-methyl-4-oxo-oxetan-3-yl]-carbamate]	–	–
0.11	C[C@@H]1OC(=O)[C@@H]1NC(=O)OCCCCCCCc1ccccc1 [Example 16, 7-Phenylheptyl-N-[(2S,3R)-2-methyl-4-oxo-oxetan-3-yl]-carbamate]	–	–
–	CC(C)(C)[C@@H]1OC(=O)[C@@H]1NC(=O)OCc1ccc(-c2ccccc2)cc1 (relative stereo) [Example 59, (4-Phenyl-phenyl)-methyl-N-[(2S*,3R*)-2-tert-butyl-4-oxo-oxetan-3-yl]-carbamate]	57	–
1.21	Cc1ccc(CCOC(=O)N[C@H]2C(=O)O[C@H]2C)cc1 [Example 3, 2-(4-methylphenyl)ethyl-[(2S,3R)-2-methyl-4-oxooxetan-3-yl]-carbamate]	–	–
3.76	CCCCC1(OC(=O)N[C@H]2C(=O)O[C@H]2C)COC1 [Example 24, (3-butyloxetan-3-yl)-N-[(2S,3R)-2-methyl-4-oxo-oxetan-3-yl]-carbamate]	–	–
–	CC(C)[C@H]1OC(=O)[C@@H]1NC(=O)OCCCCCc1ccccc1 (relative stereo) [Example 51, 5-Phenylpentyl-N-[(2R*,3R*)-2-isopropyl-4-oxo-oxetan-3-yl]-carbamate]	92	–
–	CC(C)[C@@H]1OC(=O)[C@@H]1NC(=O)OCc1ccc(-c2ccccc2)cc1 (relative stereo) [Example 54, (4-Phenylphenyl)-methyl-N-[(2S*,3R*)-2-isopropyl-4-oxo-oxetan-3-yl]-carbamate]	53	–

SMILES	IC50 [µM]	inhibition at 3 µM [%]	also measured
C[C@@H]1OC(=O)[C@@H]1NC(=O)Oc1ccc(OCc2ccccc2)cc1 [Example 26, (4-benzyloxyphenyl)-N-[(2S,3R)-2-methyl-4-oxo-oxetan-3-yl]-carbamate]	0.29	–	–
